Read-outs that look alike come from different tables or passages of the source.
Columns and labels:
[1] = Experimental: Prior to use, the appropriate amount of choline solution is transferred from the sterile vial and is added to the nutrient solution which typically is contained in a TPN bag.
[2] = system: plasma levels of homocysteine
Experimental: Two female normal volunteers were infused with C-13-labeled choline and plasma levels of homocysteine were determined before and after infusion.

Row | Compound | effects on the TPN solution turbidity, pH, or amino acid concentrations ([1]; choline chloride added to TPN nutrient solutions) | stable in various TPN nutrient solutions ([1]; various TPN nutrient solutions) | Plasma concentration of homocysteine after infusion ([2]; first normal volunteer, 6.62 umol/L before infusion) | Plasma concentration of homocysteine after infusion ([2]; second normal volunteer, 7.47 umol/L before infusion)
1 | C[N+](C)(C)CCO.[Cl-] [Choline chloride, choline chloride] | no adverse affects | at least 30 days | – | –
2 | C-13-labeled choline | – | – | 5.14 µmol/L | 6.64 µmol/L
